Experimental data published in patent US12178825B2, “Method and compositions for forming a copper-containing complex and uses thereof” (COLD SPRING HARBOR LABORATORY, priority 2017, dated 2024).

Tests used:
MDA-MB-231 cells = assay: Cell survival; type: cell-based
Method: (§1) The MTT assay was used to evaluate cell survival in the absence and presence of different compounds. The thiazolyl blue tetrazolium bromide (MTT) was dissolved in phosphate buffered saline (PBS) at a concentration of 5 mg/ml, filtered, and stored at 4° C. About 10,000 cells were seeded into a 96-well plate and cultured in growth medium containing serum. After 24 hours, cells were treated with the indicated concentrations of DPM-1001 or DPM-1003 (0-100 uM) for 2 hrs. Following which 20 μl MTT was added into each well. An ELISA plate reader (Biotek, Winooski, Vermont, USA) was used to measure the optical density at 490 nm.
MDA-MB-231 cells (1×10^5) were seeded in 6 cm plates in growth medium. The cells were untreated or treated with DPM-1001 (0.5, 1, 2 and 5 μM), DPM-1003 (0.5, 1, 2 and 5 μM) or TTM (25, 50, 100 μM) for 1 h. Following which, media was gently aspirated and cells were washed with PBS. To each plate 0.5 ml of crystal violet (0.5%) was added and incubated in dark for 10 minutes at room temperature. The staining solution was removed and plates were washed with PBS (three times). The cells stained with the dye were imaged.

[1] = system: AZD6244-insensitive cells; assay: Immunoblot of phospho-MEK and phospho-Erk; type: cell-based; conditions: AZD6244-insensitive (resistant) cells
Excerpt: (§2) Equal quantities of lysates were isolated from indicated cell lines and then resolved by SDS-PAGE and immunoblotted with one of the following primary antibodies: mouse anti-MEK1/2, rabbit anti-p-PAK1, rabbit anti-PAK1, rabbit anti-ERK1/2, rabbit anti-phospho(Ser 217/221)-MEK1/2, rabbit anti-phospho(Thr 202/Tyr 204)-ERK1/2, rabbit anti-phospho (Ser 338)-c-RAF, rabbit anti-RAF, rabbit anti-phospho (Ser 112)-BAD and rabbit anti-BAD (Cell Signaling Technology), mouse anti-β-actin (Sigma), followed by detection with one of the following horseradish peroxidase-conjugated secondary antibodies: goat anti-rabbit IgG, goat anti-mouse IgG (Invitrogen), mouse anti-rabbit light-chain-specific IgG (Jackson ImmunoResearch Laboratories) using enhanced chemiluminescence (ECL; GE Healthcare) or SuperSignal West Femto Chemiluminescent substrate (Pierce) detection reagents.

AZD6244-sensitive cells = assay: Immunoblot of phospho-MEK and phospho-Erk; type: cell-based; conditions: 1-2 μM AZD6244
Excerpt: as §2

SUM159 = assay: Cell survival; type: cell-based
Method: as §1

MCF-7 = assay: Cell survival; type: cell-based
Method: as §1

MDA-MB-468 cells = assay: Cell survival; type: cell-based
Method: as §1

SUM149 cells = assay: Cell survival; type: cell-based
Method: as §1

HCC70 cells = assay: Cell survival; type: cell-based
Method: as §1

PAK1 [2] = biological target: T1, PAK1 (Homo sapiens, UniProt Q13153); assay: Kinase activity assay (ADP-Glow, MBP substrate); type: biochemical; conditions: in the presence of Cu(II)
T1 sequence (Q13153 whole entry): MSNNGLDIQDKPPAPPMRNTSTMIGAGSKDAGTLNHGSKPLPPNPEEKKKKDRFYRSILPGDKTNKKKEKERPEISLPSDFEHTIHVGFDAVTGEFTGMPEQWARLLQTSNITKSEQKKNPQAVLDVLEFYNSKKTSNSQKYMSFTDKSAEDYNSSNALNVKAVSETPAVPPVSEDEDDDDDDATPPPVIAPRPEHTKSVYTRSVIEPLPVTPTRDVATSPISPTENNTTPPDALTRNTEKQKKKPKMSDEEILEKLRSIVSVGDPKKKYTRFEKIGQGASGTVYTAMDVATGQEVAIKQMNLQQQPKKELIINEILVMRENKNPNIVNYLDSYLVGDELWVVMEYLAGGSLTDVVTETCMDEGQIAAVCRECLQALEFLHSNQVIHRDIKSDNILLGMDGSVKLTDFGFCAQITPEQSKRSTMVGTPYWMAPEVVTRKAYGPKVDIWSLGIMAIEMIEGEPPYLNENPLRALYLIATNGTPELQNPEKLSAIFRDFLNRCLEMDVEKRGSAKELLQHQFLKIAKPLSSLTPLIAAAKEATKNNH
Method: In brief, recombinant PAK1 (20 nM) or recombinant MEK1 (20 nM) were incubated for 30 min in 180 μl of kinase buffer in the presence or absence of CuSO4 (5 μM). The activity of the kinase was monitored using MBP as substrate by ADP-Glow assay (Promega) as per user's manual.

PAK1 [3] = biological target: T1, PAK1; assay: Cu-binding assay with kinase; conditions: read-out: Kd, copper binding to PAK1
Method: Direct binding assays were performed using radiolabelled copper (64 Cu^2+). Varying concentration of radiolabeled copper (0-10 uM) was incubated with recombinant PAK1 (100 nM). Excess copper was removed by running the samples through a desalting column. The amount of metal bound to the protein was quantitated directly by scintillation counting.

[4] = system: ATP7B-knockdown HepG2 cells; assay: Copper-induced toxicity, MTT cell survival; type: cell-based; conditions: copper concentrations greater than 0.5 mM
Method: HepG2 cells purchased from ATCC were cultured in RPMI media containing 10% FBS, 5% CO2 at 37 C. Control (AG09319) and Wilson's disease patient-derived fibroblasts (GM00032, GM00033, GM05257, GM12158, GM05798 and GM11778) were obtained from Coriell Biorepository and cultured in DMEM, 10% FBS, 5% CO2 at 37° C.
For cell survival assays, 10,000 cells were seeded in a 96 well plate and cultured until fully confluent (90%). To these cells, ATP7B siRNAs or scrambled siRNA (negative control) purchased from Qiagen and Santa Cruz Biotechnology were transfected. Lipofectamine RNAiMAX reagent (Thermofischer) and siRNAs were diluted into a final volume of 100 μl in Opti-MEM (Gibco). The mixture was incubated at room temperature for 30 min, following which 800 μl of Opti-MEM was added to the mixture. The above transfection solution was overlaid onto cells at a final concentration of 5 nM siRNA. Transfection of HepG2 cells with scrambled siRNA served as negative control. Twelve hours after the transfection, complete media was added to each well. Following which, knockdown efficiency was checked (24 hours later) and cells were exposed to varying concentration of copper (0-1 mM) for 12 h and cell viability was determined using the MTT assay as previously described (37). […]

MEK1 = MEK1 (Homo sapiens, UniProt Q02750); assay: Cu-binding assay with kinase; conditions: read-out: Kd, copper binding to MEK1
MEK1, sequence (Q02750 whole entry): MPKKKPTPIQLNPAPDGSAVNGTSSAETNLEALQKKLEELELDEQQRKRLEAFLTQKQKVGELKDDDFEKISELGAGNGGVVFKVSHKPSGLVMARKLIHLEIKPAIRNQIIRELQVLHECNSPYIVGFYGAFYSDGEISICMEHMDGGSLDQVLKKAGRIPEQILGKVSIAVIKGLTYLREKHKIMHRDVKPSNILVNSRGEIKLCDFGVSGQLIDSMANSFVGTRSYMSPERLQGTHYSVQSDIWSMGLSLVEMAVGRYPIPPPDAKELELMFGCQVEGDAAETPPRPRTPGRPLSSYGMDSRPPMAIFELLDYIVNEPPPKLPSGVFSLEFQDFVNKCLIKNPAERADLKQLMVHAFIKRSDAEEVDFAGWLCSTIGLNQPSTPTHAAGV

Cn1cnc2c(F)c(Nc3ccc(Br)cc3Cl)c(C(=O)NOCCO)cc21 [AZD6244, 6-(4-bromo-2-chloroanilino)-7-fluoro-N-(2-hydroxyethoxy)-3-methylbenzimidazole-5-carboxamide]
survival of MDA-MB-231 cells (MDA-MB-231 cells): inhibited cell survival
phospho-MEK and phospho-Erk [1]: without effect
phospho-MEK and phospho-Erk (AZD6244-sensitive cells): reduced phospho-MEK and phospho-Erk
survival of SUM159 cells (SUM159): inhibited cell survival
survival of MCF-7 cells (MCF-7): inhibited cell survival
survival of MDA-MB-468 cells (MDA-MB-468 cells): without effect on survival
survival of SUM149 cells (SUM149 cells): without effect on survival
survival of HCC70 cells (HCC70 cells): without effect on survival

[Cu+2] [copper]
Vmax of PAK1 kinase activity (PAK1 [2]): 834.4
Kd (PAK1 [3]): 15 nM
survival of ATP7B-KD1 [4]: less than 20%
Kd (MEK1): 5 nM
